As usually defined, the EC50 is the concentration needed to bring the measured effect to its halfway point.

This is an account of results in patent US10196363B2, “Dihydropyrimidin-2-one compounds and medical use thereof” (JAPAN TOBACCO INC., priority 2014, dated 2019).

Read-outs that look alike come from different tables or passages of the source.

One test deals with T1, human RORγ (Homo sapiens, UniProt P51449).
T1 construct: human RORγ, from Ser253 to Lys518; expressed in transfected cells; host or cells: CHO cells (Chinese hamster ovary), transient co-transfection with pG5-Luc
T1 sequence (P51449 253-518): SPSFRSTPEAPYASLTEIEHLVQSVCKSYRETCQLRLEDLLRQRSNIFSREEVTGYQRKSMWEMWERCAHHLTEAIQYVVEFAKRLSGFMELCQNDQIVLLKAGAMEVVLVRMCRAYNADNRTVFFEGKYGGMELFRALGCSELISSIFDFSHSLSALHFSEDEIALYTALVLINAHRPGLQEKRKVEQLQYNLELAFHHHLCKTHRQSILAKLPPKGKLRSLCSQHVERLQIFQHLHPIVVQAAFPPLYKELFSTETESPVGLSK
Nature of the test: In vitro assay of inhibitory effect against RORγ transcriptional activity (GAL4-hRORγ LBD luciferase reporter gene assay in CHO cells). The test is classed as cell-based. The note with it: for hRORγ luciferase activity, %-of-control: vehicle-control 0.2% DMSO alone = 100%. On the procedure:
(§1) In Vitro Assay of Inhibitory Effect Against RORγ Transcriptional Activity
(§2) Inhibitory effect of a test article on transcriptional activity of RORγ was measured by means of the following reporter gene assay.
(§3) cDNA encoding human and mouse RORγ ligand binding domain (LBD) were obtained based on the sequences of human RORγ (Genebank registered number NM_005060.3) and mouse RORγ (Genebank registered number NM_011281.2) (LBD sequence: human RORγ, from Ser253 to Lys518; mouse RORγ, from Ile251 to Lys516).
(§4) The LBD cDNA of human or mouse RORγ was inserted into pFA-CMV vector (Strategene), which expresses GAL4-DNA binding domain fusion protein. The resulting plasmids are hereinafter referred to as GAL4-hRORγ plasmid and GAL4-mRORγ plasmid, respectively.
(§5) GAL4-hRORγ plasmid or GAL4-mRORγ plasmid was transiently co-transfected into Chinese hamster ovary cells (CHO cells) with pG5-Luc (Promega), a reporter plasmid expressing firefly luciferase depending on GAL4.
(§6) TransIT (Registered trademark) CHO transfection reagent (Mirus) was used to co-transfect GAL4-hRORγ plasmid or GAL4-mRORγ plasmid into CHO cells with pG5-Luc plasmid. One day before the assay, CHO cells were suspended in HAM F-12 Nutrient medium containing 10 v/v % fetal bovine serum and seeded at 6×10^6 cells per 175 cm^2 cell culture flask. Fifty four micro litters of TransIT (Registered trademark) CHO reagent was added into a 15 ml tube containing 1.16 mL of HAM F-12 Nutrient medium without fetal bovine serum, and mixed and incubated at room temperature for 10 min. Thirty six micro litters of plasmid solution containing the GAL4-hRORγ plasmid (400 ng), pG5-Luc plasmid (9000 ng) and pcDNA3 plasmid (8600 ng) were added into the tube and mixed gently. In case of mouse assay, a plasmid solution containing the GAL4-mRORγ plasmid (250 ng), pG5-Luc plasmid (9000 ng) and pcDNA3 plasmid (8750 ng) was added, instead. The mixture was incubated at room temperature for 10 min. Nine micro litters of CHO Mojo Reagent were then added into each tube and mixed gently. The mixture was incubated at room temperature for 10 min. The resultant transfection reagent was applied to the cell culture. After incubation at 37° C., 5% CO2 for 4 hours, the plasmid-transfected CHO cells were harvested with a trypsin treatment. The collected cells were resuspended in HAM F-12 Nutrient medium supplemented with 10 v/v % fetal bovine serum and plated into a 384-well-white plate at 8,000 cells/50 μL/well. The plate was incubated at room temperature for 1 hour and then further incubated at 37° C., 5% CO2 for 3 hours. The test articles were dissolved in dimethylsulfoxide (DMSO) to obtain a concentration of 10 mM. The resulting solution was diluted with a medium just before use and added to the cells in the plate to prepare 8 different concentrations of the test article. The final concentration of DMSO was 0.2 v/v %. After the addition of the test articles, the cells were incubated at 37° C., 5% CO2 for 2 days.
(§7) RORγ transcriptional activity was detected as the intracellular luciferase activity using SteadyLite HTS Reporter Gene Assay System (Perkin Elmer). StedyLite Reagent was diluted five-fold into a solution containing Extension reagent (10 mM Tricine, 0.2% w/v BSA, 0.02% v/v Tween-20) to obtain the luciferase substrate solution. After the measurement of the cell viability using Resazurin, the culture media in the plate were removed, and then the luciferase substrate solution was added into each well. After the incubation at room temperature for 10 minutes, luminescence of each well was measured by a microplate reader. The luciferase activity derived from the luminescence count in the vehicle-control well treated with 0.2% DMSO alone was defined as 100%, and the luciferase activity in the test article was calculated as a percentage (%-of-control) based on the value of the vehicle-control. EC50 value of test article was calculated by curve fitting with GraphPad Prism. […]
Background: Reporter assays use an easily measured gene product as a stand-in for the process of interest.

The next test addresses T2, mouse RORγ (Mus musculus, UniProt P51450).
T2 construct: mouse RORγ, from Ile251 to Lys516; expressed in transfected cells; host or cells: CHO cells (Chinese hamster ovary), transient co-transfection with pG5-Luc
T2 sequence (P51450 251-516): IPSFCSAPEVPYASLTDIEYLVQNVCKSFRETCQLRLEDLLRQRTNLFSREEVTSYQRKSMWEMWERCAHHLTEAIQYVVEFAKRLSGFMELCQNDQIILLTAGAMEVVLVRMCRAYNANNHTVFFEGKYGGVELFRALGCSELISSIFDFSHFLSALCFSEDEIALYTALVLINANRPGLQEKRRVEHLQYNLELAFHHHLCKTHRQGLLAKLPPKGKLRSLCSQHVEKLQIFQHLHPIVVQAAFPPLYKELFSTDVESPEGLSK
Nature of the test: In vitro assay of inhibitory effect against RORγ transcriptional activity (GAL4-mRORγ LBD luciferase reporter gene assay in CHO cells). Format: cell-based. The note with it: for mRORγ luciferase activity, %-of-control: value in parentheses beside the EC50 bound, vehicle-control 0.2% DMSO alone = 100%. On the procedure: as §1, §2, §3, §4, §5, §6, §7

The mark [1] stands for this setting: GAL4-hRORγ LBD / pG5-Luc in CHO cells, 2 days incubation.
[2] abbreviates: GAL4-mRORγ LBD / pG5-Luc in CHO cells, 2 days incubation.
[3] abbreviates: GAL4-hRORγ LBD luciferase reporter, CHO cells, read-out: LUC EC50 hRORγ.
Where [4] appears, read: value in parentheses beside the EC50 bound.
Where [5] appears, read: GAL4-mRORγ LBD luciferase reporter, CHO cells, read-out: LUC EC50 mRORγ.

On to `CC(C)C1=CN(CCC(C)C(=O)O)C(=O)NC1(C)c1ccc(OCC(C)(C)C)c(Cl)c1` (mixture of isomers) [Example 21], for which the EC50 at human RORγ (setting [1]) was found to be 19 nM; at mouse RORγ (setting [2]) it was 24 nM.
For `CC(C)C[S+]([O-])c1ccc([C@]2(C)NC(=O)N(CCC(=O)O)C=C2C(C)C)cc1Cl` (mixture of isomers) [Example 215], the EC50 on human RORγ (setting [3]) and on mouse RORγ (setting [5]) was over 20000 nM in each case. The “hRORγ luciferase activity, %-of-control” value at human RORγ (setting [4]) is listed as “(77%)”. Moreover, the “mRORγ luciferase activity, %-of-control” value on mouse RORγ is “(70%)”.
For the compound `CC(C)CC[S+]([O-])c1ccc([C@]2(C)NC(=O)N(CCC(=O)O)C=C2C(C)C)cc1Cl` (mixture of isomers) [Example 217], the EC50 at human RORγ (setting [3]) and on mouse RORγ (setting [5]) was over 20000 nM throughout. Further, the “hRORγ luciferase activity, %-of-control” value on human RORγ (setting [4]) is reported as “(90%)”. Moreover, the “mRORγ luciferase activity, %-of-control” value at mouse RORγ is reported as “(77%)”.
For `CC(C)C1=CN(CCC(=O)O)C(=O)N[C@@]1(C)c1ccc([S+]([O-])C2CCCC2)c(Cl)c1` (mixture of isomers) [Example 223], the 50% effective concentration (EC50) at human RORγ (setting [3]) and on mouse RORγ (setting [5]) was over 20000 nM throughout. In addition, the “hRORγ luciferase activity, %-of-control” value at human RORγ (setting [4]) is recorded as “(78%)”. For the same compound, the “mRORγ luciferase activity, %-of-control” value at mouse RORγ is given as “(70%)”.
As to `CC(C)(C)COc1ccc(C2NC(=O)N(CCCC(=O)O)C=C2C(C)(C)C)cc1Cl` (racemic) [Example 1], the EC50 on human RORγ (setting [1]) amounted to 88 nM; at mouse RORγ (setting [2]), 60 nM.
As to `CC(C)(C)COc1ccc(C2NC(=O)NC=C2C(C)(C)C(=O)O)cc1Cl` (racemic) [Example 2], the EC50 on human RORγ (setting [1]) was over 20000 nM; on mouse RORγ (setting [2]), 13100 nM. Moreover, on human RORγ (value in parentheses beside the > EC50 bound), the “hRORγ luciferase activity, %-of-control” value is recorded as “(55%)”.
For `CC(C)(C)C1=CN(CCCC(=O)O)C(=O)NC1c1ccc(OCCC2CCCCC2)c(Cl)c1` (racemic) [Example 3], the concentration giving a half-maximal response (EC50) on human RORγ (setting [1]) stood at 182 nM; on mouse RORγ (setting [2]), 61 nM.
With `CC(C)(C)COc1ccc(C2NC(=O)NC=C2C(C)(C)CC(=O)O)cc1Cl` (racemic) [Example 4], the figures for the EC50 at human RORγ (setting [1]) and on mouse RORγ (setting [2]) were 1440 nM and 675 nM, respectively.
On the same counts, the results for `CC(C)(C)COc1ccc(C2NC(=O)NC=C2C(C)(C)CCC(=O)O)cc1Cl` (racemic) [Example 7] are 152 nM and 110 nM.
`CC(C)(C)CCc1ccc(C2NC(=O)N(CCCC(=O)O)C=C2C(C)(C)C)cc1Cl` (racemic) [Example 8]: the EC50 at human RORγ (setting [1]) came out at 21 nM; on mouse RORγ (setting [2]), 22 nM.
On the same counts, the results for `CC(C)C1=CN(CCCC(=O)O)C(=O)NC1(C)c1ccc(OCC(C)(C)C)c(Cl)c1` (racemic) [Example 9] are 55 nM and 32 nM.
As to `CC(C)C1=CN([C@H]2C[C@@H](C(=O)O)C2)C(=O)NC1(C)c1ccc(OCC(C)(C)C)c(Cl)c1` (mixture of isomers) [Example 16], the EC50 at human RORγ (setting [1]) amounted to 362 nM; on mouse RORγ (setting [2]), 137 nM.
In the case of `CC(C)C1=CN([C@H]2C[C@H](C(=O)O)C2)C(=O)NC1(C)c1ccc(OCC(C)(C)C)c(Cl)c1` (mixture of isomers) [Example 17], the values for the EC50 at human RORγ (setting [1]) and at mouse RORγ (setting [2]) were 206 nM and 153 nM, respectively.
As to `CC(C)C1=CN(CCCCC(=O)O)C(=O)NC1(C)c1ccc(OCC(C)(C)C)c(Cl)c1` (racemic) [Example 18], the EC50 at human RORγ (setting [1]) is 51 nM; on mouse RORγ (setting [2]), 28 nM.
For `CC(C)(C)CCc1ccc(C2(C)NC(=O)N(CCCC(=O)O)C=C2C(C)(C)C)cc1Cl` (racemic) [Example 22] the same measures were 17 nM and 29 nM.
For the compound `CC(C)(C)CCc1ccc(C2(C)NC(=O)N(CCCC(=O)O)C=C2CC(C)(C)C)cc1Cl` (racemic) [Example 23], the EC50 was determined as 42 nM at human RORγ (setting [1]) and 41 nM at mouse RORγ (setting [2]).
For the compound `CC(C)C1=CN(CCCC(=O)O)C(=O)NC1(C)c1ccc(CCC(C)(C)C)cc1` (racemic) [Example 26], the values for the EC50 at human RORγ (setting [1]) and on mouse RORγ (setting [2]) were 364 nM and 217 nM, respectively.
As for `CC(C)CCc1ccc(C2(C)NC(=O)N(CCCC(=O)O)C=C2C(C)C)cc1Cl` (racemic) [Example 27], the 50% effective concentration (EC50) on human RORγ (setting [1]) amounted to 25 nM; at mouse RORγ (setting [2]) it was 16 nM.
